Here are results for four molecules from patent publication US20230310392A1, “COMPOSITIONS AND METHODS FOR THE TREATMENT OF EYE CONDITIONS” (Lenz Therapeutics, Inc., priority 2021, published 2023).

“And” between values parts separate entries of the source, which are not always exact repeats. Equal values may be shown once. Some results are limits rather than exact numbers.

For series [1], the system named is pupil. The series is described as follows: Duration of miosis of muscarinic agonist with brimonidine (description). The series is classed as in vivo, human. The method, then:
It is further observed that concentration of brimonidine above 0.15% w/v causes significant trigger of the alpha 1 receptor leading to ischemia and rebound redness, which neutralizes the benefit of the prolonged duration at concentrations from about 0.07% to about 0.15% w/v brimonidine.
Another surprising discovery of the present invention, is that when the pH of a composition comprising a muscarinic agonist and brimonidine is below about 6.0 the duration of miosis is prolonged up to 14 hours.
In a still further embodiment lower pH is virtually found to cause the formulation to remain on the ocular surface longer, and therefore provide more sustained microvessel constriction and reduced egress of active ingredients.

Series [2] relates to emmetrope over the age of 45. As to the kind of experiment: Miotic agent with or without tropicamide and carrier: near and distance vision of an emmetrope over the age of 45 (FIG. 2). The series is classed as in vivo, human. The source says: Subject is an emmetrope over the age of 45 with a baseline near vision of 20.100 and baseline distance vision of 20.20. […] […] A proper drug carrier can also have a beneficial effect.

The subject of series [3] is presbyopic subjects. As to the kind of experiment: Effect of aceclidine compositions on near and distance vision of presbyopic subjects aged 47 to 67 (Example 1). The series is classed as in vivo, human. Conditions: for Effect: duration of effect; for Post Gtt 15″ L Post Dist: left eye distance vision; for Post Gtt 15″ L Post Near: left eye near vision; for Post Gtt 15″ R Post Dist: right eye distance vision; for Post Gtt 15″ R Post Near: right eye near vision. The protocol: As aceclidine is an […], the clinical effectiveness may vary with different ratios. For the present studies a nearly exact 50:50 ratio of stereoisomers was measured as best determined by polarimetry.
After administration of the composition all subjects experienced an improvement in their near vision that lasted from 7 to 12 hours.

Series [4] deals with presbyopic patient. As to the kind of experiment: Compositions containing little or no cycloplegic agent: reading vs baseline at 40 cm, duration, comfort, efficacy index (Example 7). The series is classed as in vivo, human. Conditions: 1.75% aceclidine, 2.5% mannitol, 0.01% tropicamide, 5% polysorbate 80, no viscosity agent. The source says: Aceclidine alone causes incidence migraine-like severe ciliary spasm (brow ache) and myopic blur. These effects are inversely correlated to age with subjects age 40 reporting the highest incidence and subject age 60+ reporting the lowest incidence. The addition of a cycloplegic agent reduces ciliary spasms and attendant brow ache, migranious headache, squeezing pressure around eyes or other symptoms of ciliary spasms. […] The addition of 2.5% w/v mannitol however does reduce the myopic effect of aceclidine. Increasing the aceclidine concentration overcomes this reduction in myopic effect seen with the addition of mannitol. […] Even more surprising, the concentration of the cycloplegic agent can be reduced or even eliminated in the presence of mannitol without an increase in ciliary spasm. […]
Further and unexpectedly, the addition of a nonionic surfactant increases both the quantitative measure of near vision improvement and the duration. […]
In brief, the score is calculated by multiplying the lines of improvement in near visual acuity by the number of hours the improvement lasts. […]

A short description of series [5]: Stability of aceclidine in solution at 25° C. and 4° C. by HPLC (Example 6). The series is classed as physicochemical. The method, then:
20 samples of the above composition were divided evenly and stored at 25° C. and 4° C. Prior to storage, initial concentrations of aceclidine were measured using […] (“HPLC”). The amount of aceclidine in each solution was calculated by the area under the principal peak compared to a reference solution of aceclidine. Samples were then subject to storage for 3 months. Aceclidine measurements were taken at 1, 2 and 3 months.

The test system of series [6] is presbyopic subject. As to the kind of experiment: 1.75% aceclidine in saline, LogMAR visual acuity of a presbyopic subject (Example 13). The series is classed as in vivo, human. The protocol: A 1.75% aceclidine in saline solution was formulated. One drop was instilled into each eye of a presbyopic subject. The visual acuity of the subject was tested both before and after instillation using a LogMAR chart.

Series [7] has as its system subjects. The series is described as follows: Modulation of aceclidine concentration in a preferred embodiment: stinging, redness, comfort, depth of focus (Example 2). The series is classed as in vivo, human. The method, then:
Preferred embodiment: • Aceclidine 1.35% - 1.55% w/v; • Polyoxyl 40 stearate 5.5% w/v; • NaCl 0.037% w/v; • a viscosity agent, preferably CMC 0.80% w/v or an amount of Carbopol® 934 or 940 sufficient to achieve a viscosity of from about 5 to about 35 cps upon topical instillation, such as Carbopol® 940 at a concentration from about 0.09% to about 1.0% w/v; • BAK 0.015% w/v; and • a phosphate, citrate, citrophosphate, or acetate buffer from about 3 to about 10 mM, wherein the pH is from about 4.75 to about 6.0.
For 1.35% w/v aceclidine - • Stinging on topical instillation 0.25 / 4.0 (lasting about 2-5 seconds); • Induced redness at 10 minutes: 1.0 to 1.5/4.0; • Induced redness at 30 minutes: 0.0 to 0.25 / 4.0; • Comfort: very high. • Wetting: very high, the eye maintaining sensation of improved wetting for most of a 24-hour period after a single topical instillation. • Depth of Focus distance: excellent. • Depth of Focus near: excellent.
In testing the above formulations on several subjects, it was discovered that there is a slight range in clinical effect depending on the concentration of aceclidine, where 1.35% - 1.55% w/v aceclidine is preferred, but for which 1.35% w/v and 1.45% w/v confer the desired benefits on most subjects.

The test system of series [8] is patients. The conditions noted are these: cited from earlier work.
The subject of series [9] is subject. The conditions noted are these: in vivo.
Text: The subject independently instilled 2 drops of the above compositions in each eye and the excess wiped from lids and lashes.
Stinging and Redness are based on a scale of 0 to 4 with 0 being none and 4 being the most severe.
The mark [10] stands for this setting: aceclidine 1.1% composition with 0.125% w/v tropicamide.
The mark [11] stands for this setting: aceclidine 1.5% composition, object at 15 inches.

Turning to `CC(=O)OC1CN2CCC1CC2` (racemic) [aceclidine], the “Duration of miosis / efficacy for near depth of field improvement” value in [1] (aceclidine in a preferred vehicle, pupil sizes of 1.5 to 2.0 mm) lay within 6 to 7 h. The Duration of miosis in [1] (with the addition of brimonidine at 0.07% to 0.08%) was 10 to 12 h. For the same molecule, the Distance vision entry in series [2] (1.55% w/v aceclidine in saline) is on record as “without any effect on the baseline distance vision”. Also, the Near vision in [2] (1.55% w/v aceclidine in saline) is 20.40; in [2] (aceclidine in carrier: 5.5% HPβCD, 0.75% CMC, 0.25% NaCl, 0.01% BAK), under 20.20; in [2] (aceclidine in the carrier with 0.042% w/v tropicamide), 20.15. Further, in [2] (1.55% w/v aceclidine in saline), the “Time period of near vision improvement” value was 6 h. In addition, the “Effect” value in series [3] (setting [10]) was 12.00 h and 7.00 h; in series [3] (aceclidine 1.5% composition), 9.00 h and 8.00 h. The “Post Gtt 15″ L Post Dist” value in series [3] (setting [10]) was 20.15 and 20.20; in series [3] (aceclidine 1.5% composition), 20.20 and 20.25 and 20.30. Also, the “Post Gtt 15″ L Post Near” value is 20.15 and 20.25 in series [3] (setting [10]); 20.15 and 20.20 and 20.30 in series [3] (setting [11]). The “Post Gtt 15″ R Post Dist” value was 20.15 and 20.20 in series [3] (setting [10]); 20.20 and 20.25 in series [3] (aceclidine 1.5% with 5.5% HPβCD, 0.75% CMC, 0.25% NaCl, 0.01% BAK). Besides, the “Post Gtt 15″ R Post Near” value in [3] (setting [10]) is 20.20 and 20.25; in series [3] (setting [11]), 20.15 and 20.25 and 20.20. The Near vision improvement entry in series [4] is reported as “up to 3 lines of vision acuity”. Further, the Aceclidine remaining in [5] (4° C., 1 month) is 93%; in [5] (4° C., 2 months), 92%; in series [5] (4° C., 3 months), 88%; in series [5] (4° C., Initial) it was 100%; in [5] (25° C., 1 month) it was 92%; in [5] (25° C., 2 months), 75%. Also, the Aceclidine remaining in [5] (25° C., 3 months) was 50%; in series [5] (25° C., Initial) it was 100%. Further, the “LogMAR score at 1-meter distance after instillation” value in series [6] (1.75% aceclidine in saline, one drop each eye) is -0.12 LogMAR. Also, the “LogMAR score at 45 centimeters distance after instillation” value in series [6] (1.75% aceclidine in saline, one drop each eye, 0.50 prior to instillation) turned out to be 0.22 LogMAR. Moreover, the “Time at which noticeable degradation in reading distance acuity began” value in [6] (post instillation) amounted to 4 h. Also, the “Time improved reading distance acuity was maintained” value in [6] (post instillation) came to 3.5 h. Also, the Comfort result in [7] (1.35% w/v aceclidine) is “very high”. In series [7] (1.35% w/v aceclidine), the “Depth of Focus distance” value is “excellent”. Further, the “Depth of Focus near” value in series [7] (1.35% w/v aceclidine) is given as “excellent”. For the same molecule, the Duration of stinging in series [7] (1.35% w/v aceclidine preferred embodiment) lay within 2 to 5 s. In series [7] (1.35% w/v aceclidine preferred embodiment, score out of 4.0), the “Stinging on topical instillation” value worked out at 0.25.
Take `Brc1c(NC2=NCCN2)ccc2nccnc12` [brimonidine]: the “Treated subjects with tachyphylaxis of pupil modulation” value in [8] (brimonidine 0.20% w/v topically for night vision, within four weeks of use) is on record as about 100%. The “Patients with rebound redness” value in series [8] (brimonidine 0.20% w/v twice daily) is 25%.
As for Polysorbate 80, in [9], the “Redness 1 hr” value came to 0.5 and the Stinging was 0.25.
The corresponding values for poloxamer 407 are 1 and 0.5.
